# Measurements reported in US9044437B2, “Method for treating alzheimer's disease using pharmacological chaperones to increase the activity of gangliosidases” (Amicus Therapeutics, Inc., priority 2009, dated 2015).
# Read-outs that look alike come from different tables or passages of the source.
# Assays:
# Neu 3 = target: T1, Neu 3 (Homo sapiens, UniProt Q9UQ49); conditions: marked *: Values reported in the literature; cited from earlier work
# T1 sequence (Q9UQ49 1-428): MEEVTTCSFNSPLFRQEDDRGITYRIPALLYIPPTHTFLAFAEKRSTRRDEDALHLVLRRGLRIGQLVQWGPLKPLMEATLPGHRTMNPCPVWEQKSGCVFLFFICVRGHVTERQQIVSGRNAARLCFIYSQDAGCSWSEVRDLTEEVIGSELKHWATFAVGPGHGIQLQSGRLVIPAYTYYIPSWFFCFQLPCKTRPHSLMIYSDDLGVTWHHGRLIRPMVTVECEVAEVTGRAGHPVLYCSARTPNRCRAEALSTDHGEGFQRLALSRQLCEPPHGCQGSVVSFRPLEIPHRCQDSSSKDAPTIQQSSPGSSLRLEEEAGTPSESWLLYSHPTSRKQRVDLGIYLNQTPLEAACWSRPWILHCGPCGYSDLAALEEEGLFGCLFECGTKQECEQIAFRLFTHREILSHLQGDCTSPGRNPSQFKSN
# Neu 2 = Neu 2 (Homo sapiens, UniProt Q9Y3R4); conditions: marked *: Values reported in the literature; cited from earlier work
# Neu 4 = target: T2, Neu 4 (Homo sapiens, UniProt Q8WWR8); conditions: marked *: Values reported in the literature; cited from earlier work
# T2 sequence (Q8WWR8 1-484): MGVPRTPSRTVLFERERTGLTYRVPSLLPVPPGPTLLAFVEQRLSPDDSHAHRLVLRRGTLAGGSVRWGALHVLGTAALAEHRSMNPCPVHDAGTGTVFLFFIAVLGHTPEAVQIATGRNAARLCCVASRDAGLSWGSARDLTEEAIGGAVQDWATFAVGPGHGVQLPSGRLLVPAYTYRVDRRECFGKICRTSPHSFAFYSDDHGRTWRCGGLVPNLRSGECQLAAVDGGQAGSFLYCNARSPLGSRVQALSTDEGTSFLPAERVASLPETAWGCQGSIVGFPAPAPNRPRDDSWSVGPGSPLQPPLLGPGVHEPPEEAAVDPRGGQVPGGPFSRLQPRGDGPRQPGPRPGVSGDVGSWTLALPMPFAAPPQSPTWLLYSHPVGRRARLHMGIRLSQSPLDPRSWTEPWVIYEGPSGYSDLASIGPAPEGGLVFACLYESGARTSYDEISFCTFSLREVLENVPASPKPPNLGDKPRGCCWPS
# Neu 1 [1] = target: T3, Neu 1 (Homo sapiens, UniProt Q99519); conditions: marked *: Values reported in the literature; cited from earlier work
# wild-type β-Hex = target: T4, wild-type β-Hex (Mus musculus, UniProt P20060); assay: Cellular β-Hex levels in N2A mouse neuroblastomas (HexB immunoblot); assay type: cell-based; conditions: 10 μM, 3 days
# T4 construct: increase in endogenous wild-type β-hexosaminidase levels and sAPPα shedding in N2A mouse neuroblastomas; endogenous in cells; host or cells: N2A mouse neuroblastoma cells
# T4 sequence (P20060 32-536): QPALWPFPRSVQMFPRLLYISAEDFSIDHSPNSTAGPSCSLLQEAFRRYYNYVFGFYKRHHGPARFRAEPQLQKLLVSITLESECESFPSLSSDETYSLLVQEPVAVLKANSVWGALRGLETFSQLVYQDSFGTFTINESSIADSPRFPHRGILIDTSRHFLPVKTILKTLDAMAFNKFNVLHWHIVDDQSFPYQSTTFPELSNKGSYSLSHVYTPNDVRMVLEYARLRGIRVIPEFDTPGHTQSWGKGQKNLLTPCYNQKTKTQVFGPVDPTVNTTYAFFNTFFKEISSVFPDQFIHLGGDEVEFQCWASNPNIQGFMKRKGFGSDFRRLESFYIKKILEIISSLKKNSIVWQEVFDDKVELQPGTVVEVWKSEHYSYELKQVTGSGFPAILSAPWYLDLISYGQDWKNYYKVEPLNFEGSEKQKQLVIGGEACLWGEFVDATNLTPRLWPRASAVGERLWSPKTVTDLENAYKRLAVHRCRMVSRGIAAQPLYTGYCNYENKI
# Method: (§1) The data shown in FIG. 4 was generated as follows. N2A mouse neuroblastomas were treated for 3 days either with no compound or with 10 μM AdDNJ, 10 μM NGT or 10 μM DGJ. The cells were scraped, harvested by centrifugation, and the cell pellet was solubilized using RIPA buffer (1% TX100, 0.5% Taurodeoxycholate, and 0.1% SDS in TBS plus protease inhibitors). The cell lysate was immunoblotted using a rabbit polyclonal antibody specific for HexB (Abcam). The levels of sAPPα were determined by immunoblotting a small fraction (30 μl) of the growth media using 22C11 antibody (Millipore).
# (§2) FIG. 4A) Treatment of N2A mouse neuroblastomas with 10 μM NGT and AdDNJ increased cellular levels of wild-type β-Hex while deoxygalactonojirimycin (DGJ), a pharmacological chaperone for the lysosomal enzyme acid α-galactosidase, had no effect on β-Hex levels.
# sAPPα [2] = assay: sAPPα shedding by N2A mouse neuroblastomas (22C11 immunoblot of media); assay type: cell-based; conditions: 10 μM, 3 days
# Method: as §1, §2
# [3] = target: B-Hex (β-hexosaminidase, Hex A/B); assay: Comparative selectivity of pharmacological chaperones: B-Hex inhibition; assay type: biochemical; conditions: marked **: Values reported as Ki's; read-out: IC50 B-Hex, values reported as Ki's
# sAPPα [4] = assay: sAPPα production by fibroblasts treated with NB-DGJ (6E10 immunoblot); assay type: cell-based, human; conditions: Sandhoff fibroblasts, 5 days treatment
# Method: The data shown in FIG. 3 was generated as follows. A wild type(healthy) fibroblast cell line (CRL2076; Coriell) and a fibroblast cell line from a Sandhoff patient (GM11707; Coriell) were cultured overnight in DMEM (plus 10% FBS) growth medium, followed by an overnight incubation in serum free media. Secreted proteins were collected by TCA precipitation (12.5%) of the growth media and analyzed by immunoblotting using 6E10 antibody (Covance) to determine the levels of sAPPα. […] To measure levels of secreted Aβ40 in media, fibroblasts (CRL2076 & GM11707) were cultured overnight in DMEM (plus 10% FBS) growth medium (3 wells/sample; 1 ml media/well), followed by an overnight incubation in serum free media. The 3 wells/sample were combined and mixed with 0.3 ml methanol, 30 μl 10% TFA (Trifluoroacetic acid). The samples were pre-concentrated using a Sepak C18 column (Waters) and then used in an ELISA assay (Covance) to determine the levels of Aβ40. To determine the levels of full length APP, fibroblasts (CRL2076 & GM11707) were cultured overnight in DMEM (plus 10% FBS) growth medium. […] Secreted proteins were collected by TCA precipitation (12.5%) of the growth media and analyzed by immunoblotting using 6E10 antibody (Covance) to determine the levels of sAPPα. […]
# [5] = target: T5, wild-type endogenous neuraminidase 1 (Homo sapiens, UniProt Q99519); assay: Neuraminidase 1 levels in fibroblasts derived from healthy individuals; assay type: cell-based; conditions: 5 days
# T5 construct: selectively increases wild-type endogenous neuraminidase-1 levels in fibroblasts; endogenous in cells; host or cells: healthy control fibroblasts
# Method: The data shown in FIG. 7 was generated as follows. Healthy control fibroblasts were treated for 5 days either with NB-DANA or IFG. The cells were scraped, harvested by centrifugation, and the cell pellet was solubilized using RIPA buffer (1% TX100, 0.5% Taurodeoxycholate, and 0.1% SDS in TBS plus protease inhibitors). The cell lysate was immunoblotted using a polyclonal antibody specific for Neu1 (Novus).
# (A) The pharmacological chaperone NB-DANA increased wild-type endogenous neuraminidase 1 levels by up to 2 fold. […] Fibroblasts derived from healthy individuals were treated with NB-DANA or IFG for 5 days and enzyme activity was measured in cell lysates using the substrate NANA-4-MU. Enzyme activity was expressed as nmol of 4-MU generated per mg protein per hour.
# Neu 1 [6] = target: T3, Neu 1; assay: Comparative selectivity: Neu 1 inhibition; assay type: biochemical
# Sequence of Neu 2 (Q9Y3R4 whole entry): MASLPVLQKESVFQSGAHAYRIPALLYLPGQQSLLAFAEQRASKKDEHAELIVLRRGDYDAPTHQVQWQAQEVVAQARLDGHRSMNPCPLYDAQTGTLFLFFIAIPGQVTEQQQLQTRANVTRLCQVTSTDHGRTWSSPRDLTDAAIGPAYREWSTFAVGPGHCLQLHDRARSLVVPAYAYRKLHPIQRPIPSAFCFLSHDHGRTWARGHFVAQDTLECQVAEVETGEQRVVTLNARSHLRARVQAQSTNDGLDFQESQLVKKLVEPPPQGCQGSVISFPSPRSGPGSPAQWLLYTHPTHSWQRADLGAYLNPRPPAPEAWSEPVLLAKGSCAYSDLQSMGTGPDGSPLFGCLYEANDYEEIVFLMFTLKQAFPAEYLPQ
molecule,measurement,setting,value
"CC(=O)N[C@H]1[C@H]([C@H](O)[C@H](O)CO)OC(C(=O)Oc2ccccc2)=C[C@@H]1O [Phenyl DANA, Phenyl 2-deoxy-2,3-dehydro-N-acetylneuraminic acid, reference compound]",IC50,Neu 3,320 µM
same,IC50,Neu 2,865 µM
same,IC50,Neu 4,810 µM
same,IC50,Neu 1 [1],13 µM
"OC[C@H]1NC[C@H](O)[C@@H](O)[C@H]1O [DGJ, deoxygalactonojirimycin, reference compound]",cellular levels of wild-type β-Hex,wild-type β-Hex,no effect
"CC(=O)N[C@H]1CN[C@H](CO)[C@@H](O)[C@@H]1O [AdDNJ, 2-acetamido-1,2-dideoxynojirimycin]",shedding of neurotrophic sAPPα,sAPPα [2],increased
same,Ki,[3],0.7 µM
same,cellular levels of wild-type β-Hex,wild-type β-Hex,increased
CCCCN1C[C@H](O)[C@@H](O)[C@@H](O)[C@H]1CO [N-butyl-deoxygalactonojirimycin],increase in production of sAPPα,sAPPα [4],35-40%
"CC(=O)N[C@H]1[C@H]([C@H](O)[C@H](O)CO)OC(C(=O)O)=C[C@@H]1O [DANA, 2-deoxy-2,3-dehydro-N-acetylneuraminic acid]",IC50,Neu 3,61 µM
"OC[C@H]1CNC[C@@H](O)[C@@H]1O [IFG, isofagomine, reference compound]",effect on wild-type neuraminidase 1 levels,[5],does not increase
"CCCCOC(=O)C1=C[C@H](O)[C@@H](NC(C)=O)[C@H]([C@H](O)[C@H](O)CO)O1 [NB-DANA, n-butyl-2-deoxy-2,3-dehydro-N-acetylneuraminic acid]",IC50,Neu 3,> 1000 µM
same,IC50,Neu 2,> 1000 µM
same,IC50,Neu 4,> 1000 µM
same,increase of wild-type endogenous neuraminidase 1 levels,[5],up to 2 fold
same,IC50,Neu 1 [6],10 µM
"5-(acetylamino)-4-[(aminoiminomethyl)-amino]-2,6-anhydro-3,4,5-trideoxy-D-glycero-D-galacto-non-2-enonic acid [Zanamivir]",IC50,Neu 1 [1],2710 µM
